Measured values as given in US4760136A, “Chartreusin derivatives and salts thereof” (Ishihara Sangyo Kaisha, Ltd., priority 1984, dated 1988).
Where a name gives a salt, the structure may show the parent alone. Read-outs that look alike come from different tables or passages of the source.

Key:
[1] = system: P-388 leukemia cells; assay: Antitumor activity: P-388 leukemia cells inoculated intraperitoneally, drug administered intravenously, BDF1 mice; format: in vivo; conditions: Mus musculus, P388, iv, read-out: T/C (%) of MST; for response vs control in vivo at 60 mg/kg: dose e: 60 mg/kg × 3, i.v. on days 1, 5 and 9
Procedure: Into BDF1 mice were inoculated intraperitoneally P-388 leukemia cells at a rate of 1×10^6 cells/mouse, and each drug to be tested was administered intravenously on the first, fifth and ninth days after the inoculation. […] The drugs were as follows solutions prepared by adding physiological saline to each of compound Nos. 8, 9, 10, 11, 17, 34, 42, 59, 80 and 134; suspensions prepared by dispersing each of compound Nos. 41, 78, 98, 100, 130, 191, 212, 213, 215, 227 and 230 to 232 and a small amount of sodium carboxymethyl cellulose (Na.CMC) in physiological saline, […]

[2] = Acute toxicity, intravenous (once), ddY mice; format: in vivo; conditions: mouse, in vivo, formulated per Preparation Example
Source text: In Table 7 are shown acute toxicity values (LD50, mg/kg) in ddY mice in the case of intravenously administering (once) each of the compounds of this invention in the form of preparations shown in the Preparation Examples shown in Table 7.

[3] = dose c: 40 mg/kg × 3, i.v. on days 1, 5 and 9, BDF1 mice, P-388 i.p.
[4] = dose b: 20 mg/kg × 3, i.v. on days 1, 5 and 9, BDF1 mice, P-388 i.p.
[5] = dose f: 80 mg/kg × 3, i.v. on days 1, 5 and 9, BDF1 mice, P-388 i.p.

| SMILES | response vs control in vivo at 40 mg/kg [1, 3] | LD50 ([2]; iv) | response vs control in vivo at 20 mg/kg [1, 4] | further results |
| --- | --- | --- | --- | --- |
| CO[C@H]1[C@@H](O)[C@@H](C)O[C@H](O[C@H]2[C@H](Oc3cccc4c(OC(=O)c5ccc([N+](=O)[O-])cc5)c5c(=O)oc6ccc(C)c7c(=O)oc(c34)c5c67)O[C@H](C)[C@@H]3OC(c4ccccc4)O[C@@H]32)[C@@H]1O (stereo partly shown) [Compound No. 186] | 176% | ≥ 80 mg/kg |  |  |
| C=CCCC(=O)Oc1c2cccc(O[C@@H]3O[C@H](C)[C@@H]4OC(c5ccc(Cl)cc5Cl)O[C@@H]4[C@H]3O[C@H]3O[C@H](C)[C@H](O)[C@H](OC)[C@H]3O)c2c2oc(=O)c3c(C)ccc4oc(=O)c1c2c43 (stereo partly shown) [compound 217] |  |  |  | response vs control in vivo at 80 mg/kg [1]: 181%; LD50 [2]: ≥ 80 mg/kg |
| COC1C(O)C(C)OC(OC2C(Oc3cccc4c(OC(=O)CCNC(C)=O)c5c(=O)oc6ccc(C)c7c(=O)oc(c34)c5c67)OC(C)C3OC(c4ccccc4)OC32)C1O (stereo not shown) [Compound No. 38] |  | ≥ 40 mg/kg | 203% |  |
| CCOCCC(=O)Oc1c2cccc(OC3OC(C)C4OC(C)(C)OC4C3OC3OC(C)C(O)C(OC)C3O)c2c2oc(=O)c3c(C)ccc4oc(=O)c1c2c43 (stereo not shown) [Compound No. 176] | 155% | ≥ 80 mg/kg |  | response vs control in vivo at 80 mg/kg [1, 5]: 208% |
| COC1C(O)C(C)OC(OC2C(Oc3cccc4c(OC(=O)CCNC=O)c5c(=O)oc6ccc(C)c7c(=O)oc(c34)c5c67)OC(C)C3OC(c4cccc([N+](=O)[O-])c4)OC32)C1O (stereo not shown) [compound 120] | 148% | ≥ 40 mg/kg |  |  |
| COC1C(O)C(C)OC(OC2C(Oc3cccc4c(OC(=O)CC(C)C)c5c(=O)oc6ccc(C)c7c(=O)oc(c34)c5c67)OC(C)C3OC(c4ccc(F)cc4)OC32)C1O (stereo not shown) [Compound No. 159] | 171% | ≥ 40 mg/kg |  | response vs control in vivo at 80 mg/kg [1, 5]: 216% |
| COC1C(O)C(C)OC(OC2C(Oc3cccc4c(OC(=O)COc5ccc(F)cc5)c5c(=O)oc6ccc(C)c7c(=O)oc(c34)c5c67)OC(C)C3OC(C)(C)OC32)C1O (stereo not shown) [compound 225] |  | ≥ 60 mg/kg |  | response vs control in vivo at 60 mg/kg ([1]; BDF1 mice, P-388 i.p.): 148% |
| COC1C(O)C(C)OC(OC2C(Oc3cccc4c(OC(=O)CCCCCN)c5c(=O)oc6ccc(C)c7c(=O)oc(c34)c5c67)OC(C)C3OC(c4ccccc4)OC32)C1O (stereo not shown) [Compound No. 19] | 233% | ≥ 40 mg/kg | 184% |  |
| COC1C(O)C(C)OC(OC2C(Oc3cccc4c(OC(=O)C(NC(=O)OCc5ccccc5)C(C)C)c5c(=O)oc6ccc(C)c7c(=O)oc(c34)c5c67)OC(C)C3OC(c4ccccc4)OC32)C1O (stereo not shown) [compound 106] |  | ≥ 40 mg/kg | 173% |  |
| COC1C(O)C(C)OC(OC2C(Oc3cccc4c(OC(=O)C5CCCCC5NC(=O)OCc5ccccc5)c5c(=O)oc6ccc(C)c7c(=O)oc(c34)c5c67)OC(C)C3OC(c4ccccc4)OC32)C1O (stereo not shown) [Compound No. 62] | 210% | ≥ 40 mg/kg | 155% |  |
| COC1C(O)C(C)OC(OC2C(Oc3cccc4c(OC(=O)CCCCCCCNC(=O)C(F)(F)F)c5c(=O)oc6ccc(C)c7c(=O)oc(c34)c5c67)OC(C)C3OC(c4ccccc4)OC32)C1O (stereo not shown) [compound 77] | 186% | ≥ 40 mg/kg | 135% |  |
| COC1C(O)C(C)OC(OC2C(Oc3cccc4c(OC(=O)c5ccc(Br)cc5)c5c(=O)oc6ccc(C)c7c(=O)oc(c34)c5c67)OC(C)C3OC(c4ccccc4)OC32)C1O (stereo not shown) [compound 229] |  | ≥ 80 mg/kg |  | response vs control in vivo at 60 mg/kg ([1]; BDF1 mice, P-388 i.p.): 167% |
| COC1C(O)C(C)OC(OC2C(Oc3cccc4c(OC(=O)C(C)CN(C(=O)OCc5ccccc5)C(C)C)c5c(=O)oc6ccc(C)c7c(=O)oc(c34)c5c67)OC(C)C3OC(c4ccccc4)OC32)C1O (stereo not drawn) [Compound No. 135, 6-O-(N-Carbobenzyloxy-N-Isopropyl-β-Amino-isobutyryl)-3',4'-O-benzylidenechartreusin] |  | ≥ 40 mg/kg | 167% |  |
| COC1C(O)C(C)OC(OC2C(Oc3cccc4c(OC(C)=O)c5c(=O)oc6ccc(C)c7c(=O)oc(c34)c5c67)OC(C)C3OC(C)(C)OC32)C1O (stereo not shown) [Compound No. 203, 6-O-Acetyl-3',4'-O-Isopropylidene-Chartreusin] |  | ≥ 60 mg/kg |  | response vs control in vivo at 60 mg/kg ([1]; BDF1 mice, P-388 i.p.): 180% |
| CCC1O[C@H]2[C@@H](O1)[C@@H](C)O[C@@H](Oc1cccc3c(OC(=O)C(C)CC)c4c(=O)oc5ccc(C)c6c(=O)oc(c13)c4c56)[C@@H]2O[C@H]1O[C@H](C)[C@H](O)[C@H](OC)[C@H]1O (stereo partly shown) [compound 219] |  |  |  | response vs control in vivo at 40 mg/kg [1]: 130%; response vs control in vivo at 80 mg/kg [1]: 182%; LD50 [2]: ≥ 80 mg/kg |
| COC1C(O)C(C)OC(OC2C(Oc3cccc4c(OC(=O)CNC(=O)OCc5ccccc5)c5c(=O)oc6ccc(C)c7c(=O)oc(c34)c5c67)OC(C)C3OC(C)(C)OC32)C1O (stereo not shown) [compound 108, 6-O-(N-carbobenzyloxyglycyl)-3',4'-O-isopropylidene-chartreusin] |  | ≥ 100 mg/kg |  | response vs control in vivo at 50 mg/kg ([1]; dose d: 50 mg/kg × 3, i.v. on days 1, 5 and 9, BDF1 mice, P-388 i.p.): 163% |
| COC1C(O)C(C)OC(OC2C(Oc3cccc4c(OC(=O)CCNC(=O)C(F)(F)F)c5c(=O)oc6ccc(C)c7c(=O)oc(c34)c5c67)OC(C)C3OC4(CCCCC4)OC32)C1O (stereo not shown) [compound 132] | 136% | ≥ 100 mg/kg |  | response vs control in vivo at 80 mg/kg [1, 5]: 146% |
| COC1C(O)C(C)OC(OC2C(Oc3cccc4c(OC(=O)CCCCCNC(=O)C(F)(F)F)c5c(=O)oc6ccc(C)c7c(=O)oc(c34)c5c67)OC(C)C3OC(c4ccc(F)cc4)OC32)C1O (stereo not shown) [compound 97] |  | ≥ 30 mg/kg | 156% |  |
| CO[C@H]1[C@@H](O)[C@@H](C)O[C@H](O[C@H]2[C@H](Oc3cccc4c(OC(=O)c5ccc(C#N)cc5)c5c(=O)oc6ccc(C)c7c(=O)oc(c34)c5c67)O[C@H](C)[C@@H]3OC(C)(C)O[C@@H]32)[C@@H]1O [Compound No. 183] | 153% | ≥ 80 mg/kg |  | response vs control in vivo at 80 mg/kg [1, 5]: 192% |
| COC(=O)c1ccc(C(=O)Oc2c3cccc(O[C@@H]4O[C@H](C)[C@@H]5OC(c6ccco6)O[C@@H]5[C@H]4O[C@H]4O[C@H](C)[C@H](O)[C@H](OC)[C@H]4O)c3c3oc(=O)c4c(C)ccc5oc(=O)c2c3c54)cc1 (stereo partly shown) [compound 211] |  | ≥ 80 mg/kg |  | response vs control in vivo at 80 mg/kg [1, 5]: 176% |
| COC1C(O)C(C)OC(OC2C(Oc3cccc4c(OC(=O)CC(C)CC(C)(C)C)c5c(=O)oc6ccc(C)c7c(=O)oc(c34)c5c67)OC(C)C3OC(C)(C)OC32)C1O (stereo not shown) [compound 237] |  | ≥ 60 mg/kg |  | response vs control in vivo at 60 mg/kg ([1]; BDF1 mice, P-388 i.p.): 242% |
| C/C=C(\C)C(=O)Oc1c2cccc(OC3OC(C)C4OC(c5cccc(C(F)(F)F)c5)OC4C3OC3OC(C)C(O)C(OC)C3O)c2c2oc(=O)c3c(C)ccc4oc(=O)c1c2c43 (stereo not drawn) [Compound No. 161, 6-O-(Trans-2-Methyl-2-Butenoyl)-3',4'-O-(m-Trifluoromethylbenzylidene)Chartreusin] | 169% | ≥ 80 mg/kg |  | response vs control in vivo at 80 mg/kg [1, 5]: 234% |
| COC1C(O)C(C)OC(OC2C(Oc3cccc4c(OC(=O)CCN)c5c(=O)oc6ccc(C)c7c(=O)oc(c34)c5c67)OC(C)C3OC(C)(C)OC32)C1O (stereo not drawn) [compound 42, 6-O-(β-alanyl)-3',4'-O-isopropylidene-chartreusin hydrochloride] |  | ≥ 100 mg/kg |  | response vs control in vivo at 80 mg/kg [1, 5]: 187% |
| CCOCCC(=O)Oc1c2cccc(O[C@@H]3O[C@H](C)[C@@H]4OC(c5cccc(Cl)c5)O[C@@H]4[C@H]3O[C@H]3O[C@H](C)[C@H](O)[C@H](OC)[C@H]3O)c2c2oc(=O)c3c(C)ccc4oc(=O)c1c2c43 (stereo partly shown) [Compound No. 188] | 193% | ≥ 60 mg/kg |  |  |
| COC1C(O)C(C)OC(OC2C(Oc3cccc4c(OC(=O)CCCNC(=O)OCc5ccccc5)c5c(=O)oc6ccc(C)c7c(=O)oc(c34)c5c67)OC(C)C3OC(c4ccccc4)OC32)C1O (stereo not shown) [compound 76] | 184% | ≥ 40 mg/kg | 135% |  |
| COC1C(O)C(C)OC(OC2C(Oc3cccc4c(OC(=O)CCNC(=O)CN)c5c(=O)oc6ccc(C)c7c(=O)oc(c34)c5c67)OC(C)C3OC(c4ccccc4)OC32)C1O (stereo not shown) [compound 10] | 197% | ≥ 40 mg/kg | 161% |  |
| COC1C(O)C(C)OC(OC2C(Oc3cccc4c(OC(=O)COC(=O)CCCl)c5c(=O)oc6ccc(C)c7c(=O)oc(c34)c5c67)OC(C)C3OC(c4ccccc4)OC32)C1O (stereo not shown) [Compound No. 149] |  | ≥ 40 mg/kg | 203% |  |
| C/C=C(\C)C(=O)Oc1c2cccc(OC3OC(C)C4OC(c5ccccc5)OC4C3OC3OC(C)C(O)C(OC)C3O)c2c2oc(=O)c3c(C)ccc4oc(=O)c1c2c43 (stereo not shown) [compound 231] |  |  |  | response vs control in vivo at 20 mg/kg [1]: 150%; LD50 [2]: ≥ 40 mg/kg |
